From ChEMBL document CHEMBL3600290, “From hybrid compounds to targeted drug delivery in antimalarial therapy” (Bioorg Med Chem, 2015)
Converted amounts (≈) assume the structure as drawn. One block for each compound: values may come before it. Numbered stars: 1 amine (or outer) side, 2 acyl side, 3 side chain; on linkers, the order of the positions; unused ones are H or OH. Square brackets hold non-standard residues; d marks the D form. Peptide text beside a SMILES is read from it. * marks the point of attachment. hPhe = N[C@@H](CCc1ccccc1)C(=O)O; Morpholide = C1CN(*)CCO1; CO = O=C([*:1])[*:2]

Experiments:
Plasmodium falciparum [1] = assay: Antimalarial activity against Plasmodium falciparum NF54 assessed as inhibition of parasite growth; assay type: functional, organism-based
[2] = Inhibition of Plasmodium falciparum FP2
Plasmodium berghei = assay: Antimalarial activity against liver stage of Plasmodium berghei; assay type: functional, organism-based
Plasmodium falciparum [3] = assay: Antimalarial activity against Plasmodium falciparum W2 assessed as inhibition of parasite growth; assay type: functional, organism-based
Plasmodium falciparum [4] = assay: Antimalarial activity against Plasmodium falciparum 3D7 assessed as inhibition of parasite growth; assay type: functional, organism-based
Plasmodium falciparum [5] = assay: Antimalarial activity against Plasmodium falciparum Dd2 assessed as inhibition of parasite growth; assay type: functional, organism-based
Plasmodium falciparum [6] = assay: Antimalarial activity against Plasmodium falciparum FcB1; assay type: functional, organism-based
Plasmodium falciparum [7] = assay: Antimalarial activity against Plasmodium falciparum infected in mouse assessed as cure rate at 26 to 32 mg/kg/day administered po or ip; assay type: functional
Plasmodium falciparum [8] = assay: Antimalarial activity against Plasmodium falciparum F32; assay type: functional, organism-based
Plasmodium falciparum [9] = assay: Antimalarial activity against Plasmodium falciparum D10 assessed as inhibition of parasite growth; assay type: functional, organism-based
Plasmodium falciparum [10] = assay: Antimalarial activity against chloroquine-resistant Plasmodium falciparum K1 assessed as inhibition of parasite growth; assay type: functional, organism-based
Plasmodium falciparum [11] = assay: Antimalarial activity against Plasmodium falciparum infected in mouse assessed as mouse survival at 3x10 mg/kg/day, po; assay type: functional
Plasmodium falciparum [12] = assay: Antimalarial activity against Plasmodium falciparum infected in mouse assessed as suppression of parasitemia at 3x10 mg/kg/day, po measured at day 4 post-infection; assay type: functional
[13] = Inhibition of Plasmodium falciparum DPAP1 after 30 mins
[14] = Inhibition of beta-hematin formation; assay type: physicochemical
Plasmodium falciparum [15] = assay: Antimalarial activity against Plasmodium falciparum D6 assessed as inhibition of parasite growth; assay type: functional, organism-based

Structure (SMILES): Clc1ccc2c(NCCNC(CCN3CCCCC3)c3ccccc3)ccnc2c1 (stereo not drawn)
IC50 (Plasmodium falciparum [1]): 7.1 nM

MIC (Plasmodium falciparum [1]): 0.25 µg/mL (≈ 0.489 µM)
Structure (SMILES): COc1ccc2nc3cc(Cl)ccc3c(Nc3cccc(Nc4ccnc5cc(Cl)ccc45)c3)c2c1

Structure (SMILES): CC(C)C[C@H](NC(=O)c1ccc(CO[C@H]2O[C@@H]3O[C@@]4(C)CC[C@H]5[C@H](C)CC[C@@H]([C@H]2C)[C@@]35OO4)cc1)C(=O)N[C@H](/C=C/S(C)(=O)=O)CCc1ccccc1
IC50 [2]: 3500 nM

IC50 [2]: 19600 nM
Structure (SMILES): CC(C)C[C@@H](NC(=O)/C=C/c1ccccc1)C(=O)N[C@H](CCc1ccccc1)C(=O)Nc1ccnc2cc(Cl)ccc12

IC50 [2]: 3160 nM
Structure (SMILES): O=C(NCCNc1ccnc2cc(Cl)ccc12)N/N=C/c1ccc(O)c(CN2CCN(c3ccnc4cc(Cl)ccc34)CC2)c1O

Structure (SMILES): COc1cc(NC(C)CCCNC2CCC3(CC2)OOC2(OO3)C3CC4CC(C3)CC2C4)c2ncccc2c1 (stereo not drawn)
IC50 (Plasmodium berghei): 330 nM
IC50 (Plasmodium falciparum [3]): 22 nM

Structure (SMILES): COc1cc(NC(C)CCCNc2ccnc3cc(Cl)ccc23)c2ncccc2c1 (stereo not drawn)
IC50 (Plasmodium falciparum [4]): 640 nM
IC50 (Plasmodium falciparum [5]): 580 nM

Structure (SMILES): CC1(C)COC2(CCC(NC3CCC(Nc4ccnc5cc(Cl)ccc45)CC3)CC2)OO1 (stereo not drawn)
IC50 (Plasmodium falciparum [6]): 24 nM
Activity (Plasmodium falciparum [7]): 100%
IC50 (Plasmodium falciparum [3]): 15 nM
IC50 (Plasmodium falciparum [8]): 13 nM

Structure (SMILES): CC(C)CN(NC(=O)C1CCC2(CC1)OOC1(OO2)C2CC3CC(C2)CC1C3)c1nc(C#N)ncc1Br (stereo not drawn)
IC50 [2]: 16.4 nM

IC50 [2]: 58.4 nM
Structure (SMILES): CC(C)CN(NC(=O)C1CCC(=O)CC1)c1nc(C#N)ncc1Br

Structure (SMILES): Cc1ccc2c(c1)/C(=N/NC(N)=S)C(=O)N2CCNc1ccnc2cc(Cl)ccc12
IC50 [2]: 11600 nM
IC50 (Plasmodium falciparum [9]): 79 nM
IC50 (Plasmodium falciparum [3]): 51 nM

Structure (SMILES): COc1cc(NC(C)CCCNC(=O)c2ccc(CO[C@H]3O[C@@H]4O[C@@]5(C)CC[C@H]6[C@H](C)CC[C@@H]([C@H]3C)[C@@]46OO5)cc2)c2ncccc2c1 (stereo partly drawn)
IC50 (Plasmodium berghei): 67 nM
IC50 (Plasmodium falciparum [3]): 5.1 nM

Structure (SMILES): C[C@H]1[C@H](OCCNCCNc2ccnc3cc(Cl)ccc23)O[C@@H]2O[C@@]3(C)CC[C@H]4[C@H](C)CC[C@@H]1[C@@]24OO3
IC50 (Plasmodium falciparum [4]): 20.5 nM
IC50 (Plasmodium falciparum [5]): 25.7 nM
IC50 (Plasmodium falciparum [9]): 21.5 nM

Structure (SMILES): C[C@@H]1CC[C@H]2C(CN3CCCCC3[C@H](O)c3cc(C(F)(F)F)nc4c(C(F)(F)F)cccc34)=C(C(F)(F)F)O[C@@H]3O[C@@]4(C)CC[C@@H]1[C@]32OO4 (stereo partly drawn)
IC50 (Plasmodium falciparum [6]): 17.2 nM
IC50 (Plasmodium falciparum [8]): 15.7 nM
IC50 (Plasmodium falciparum [10]): 10.6 nM

Structure (SMILES): COc1ccc2nccc([C@@H](O)[C@@H]3C[C@@H]4CCN3C[C@@H]4CC(=O)O[C@@H]3O[C@@H]4O[C@@]5(C)CC[C@H]6[C@H](C)CC[C@@H]([C@H]3C)[C@@]46OO5)c2c1
IC50 (Plasmodium falciparum [4]): 8.95 nM
IC50 (Plasmodium falciparum [6]): 9.59 nM

Structure (SMILES): CCN(CC)Cc1cc(C2CCC3(CC2)OOC2(OO3)C3CC4CC(C3)CC2C4)ccc1O (stereo not drawn)
Survival (Plasmodium falciparum [11]): >20 days
inhibition (INH) (Plasmodium falciparum [12]): 99.8%
IC50 (Plasmodium falciparum [3]): 5.1 nM
IC50 (Plasmodium falciparum [10]): 5.7 nM

Structure (SMILES): CC(=O)O[C@@]1(C)CC[C@@H]2C[C@@H]1OO[C@]2(/C=C\c1ccc(Cl)cc1)c1ccccc1
IC50 (Plasmodium falciparum [10]): 23 nM

Structure (SMILES): CC(C)C[C@H](NC(=O)N1CCOCC1)C(=O)N[C@@H](CCc1ccccc1)[C@@H]1OOC2(O1)C1CC3CC(C1)CC2C3 (stereo partly drawn)
IC50 (Plasmodium falciparum [4]): 35.3 nM
IC50 [2]: 510 nM

Structure (SMILES): CC(C)C[C@H](NC(=O)C1CCC2(CC1)OOC1(OO2)C2CC3CC(C2)CC1C3)C(=O)N[C@H](/C=C/S(=O)(=O)c1ccccc1)CCc1ccccc1 (stereo partly drawn)
IC50 (Plasmodium falciparum [4]): 28.4 nM
IC50 [2]: 1800 nM
IC50 (Plasmodium falciparum [3]): 18.5 nM

IC50 [2]: 69.1 nM
Structure (SMILES): CC(C)C[C@H](NC(=O)C1CCC(=O)CC1)C(=O)N[C@H](/C=C/S(=O)(=O)c1ccccc1)CCc1ccccc1
IC50 (Plasmodium falciparum [4]): 288 nM
IC50 (Plasmodium falciparum [3]): 26.2 nM

Structure (SMILES): CCCCC(C(=O)COc1c(F)c(F)cc(F)c1F)n1cc([C@@](C)(NC(=O)OCC[C@@]2(CCC(=O)NCCCN3CCCC3=O)OOC3(O2)C2CC4CC(C2)CC3C4)C2CCCC2)nn1 (stereo partly drawn)
IC50 (Plasmodium falciparum [9]): 4 nM
IC50 [13]: 10 µM

IC50 [13]: 0.07 µM
Structure (SMILES): CCCCC(C(=O)COc1c(F)c(F)cc(F)c1F)n1cc([C@@](C)(N)C2CCCC2)nn1 (stereo partly drawn)
IC50 (Plasmodium falciparum [9]): 5.2 nM

Structure (SMILES): CC(C)(C[C@H](NC(=O)N1CCOCC1)C(=O)N[C@H](/C=C/S(=O)(=O)c1ccccc1)CCc1ccccc1)OC(=O)OCC[C@@]1(CCC(=O)NCCCN2CCCC2=O)OOC2(O1)C1CC3CC(C1)CC2C3 (stereo partly drawn)
IC50 [2]: 50000 nM
IC50 (Plasmodium falciparum [3]): 600 nM

IC50 [2]: 1020 nM
Structure (SMILES): CC(C)(O)C[C@H](NC(=O)N1CCOCC1)C(=O)N[C@H](/C=C/S(=O)(=O)c1ccccc1)CCc1ccccc1
IC50 (Plasmodium falciparum [3]): 180 nM

Structure (SMILES): COc1ccc(C[C@H](NC(=O)OC2CCCC3(C2)OOC2(O3)C3CC4CC(C3)CC2C4)C(=O)N[C@H]2[C@@H](O)[C@H](n3cnc4c(N(C)C)ncnc43)O[C@@H]2CO)cc1 (stereo partly drawn)
IC50 (Plasmodium falciparum [3]): 10 nM

IC50 [2]: 16.3 nM
Structure (SMILES): CC(C)C[C@H](NC(=O)N1CCOCC1)C(=O)N[C@H](C=O)CCc1ccccc1 ({Morpholide-CO}-Leu-[hPhe]-aldehyde)

Structure (SMILES): C[C@@H]1C(=O)C[C@H]2C[C@@H]1OO[C@@]2(C)/C=C\c1ccc(C(F)(F)F)cc1C(F)(F)F [ARTEFLENE]
IC50 (Plasmodium falciparum [10]): 15 nM

Structure (SMILES): C[C@@H]1CC[C@H]2[C@@H](C)C(=O)O[C@@H]3O[C@@]4(C)CC[C@@H]1[C@]32OO4 [ARTEMISININ]
IC50 (Plasmodium falciparum [10]): 47 nM

MIC (Plasmodium falciparum [1]): 0.125 µg/mL (≈ 0.391 µM)
Structure (SMILES): CCN(CC)CCCC(C)Nc1ccnc2cc(Cl)ccc12 (stereo not drawn) [CHLOROQUINE]

IC50 [14]: 1600 nM
Structure (SMILES): Clc1ccc2c(NCCCN3CCC(NC(c4ccccn4)c4ccccn4)CC3)ccnc2c1 [DM-1157]
IC50 (Plasmodium falciparum [5]): 1.6 nM
IC50 (Plasmodium falciparum [15]): 0.9 nM

Structure (SMILES): COc1ccc(C[C@H](N)C(=O)N[C@H]2[C@@H](O)[C@H](n3cnc4c(N(C)C)ncnc43)O[C@@H]2CO)cc1 [PUROMYCIN]
IC50 (Plasmodium falciparum [3]): 42 nM
